According to paper PMC8346053, “Towards Novel 3-Aminopyrazinamide-Based Prolyl-tRNA Synthetase Inhibitors: In Silico Modelling, Thermal Shift Assay and Structural Studies” (International Journal of Molecular Sciences, 2021):
Several values for one entry are separate records, joined by “and”; a condition that tells them apart may be missing. Equal values may be shown once. Read-outs that look alike come from different tables or passages of the source.

Tests used:
recombinant HcProRS = target: T1, recombinant HcProRS (Homo sapiens, UniProt P07814); test: fluorescence-based thermal shift assay (TSA); assay type: binding; settings: for Tm with 1 mM L-Pro / ∆Tm without L-Pro / Tm without L-Pro / ∆Tm with 1 mM L-Pro: 100 µM compound; for Tm with 1 mM L-Pro / ∆Tm without L-Pro / Tm without L-Pro / ∆Tm with 1 mM L-Pro / EC50: 3.45 µM HcProRS; for Tm with 1 mM L-Pro: reference Tm with Pro only 60.20; for ∆Tm without L-Pro / Tm without L-Pro: absence of Pro; for ∆Tm without L-Pro: difference of Tm with and without compound; for Tm without L-Pro: reference Tm of HcProRS 56.15; for ∆Tm with 1 mM L-Pro: versus HcProRS with 1 mM Pro only; for effect on Tm (in words): full datasets, with and without Pro; for fold better (lower) EC50 compared with 4d: relative to 4d
T1 construct: SUMO (N, cleaved yes); made in house; host or cells: E. coli Rosetta 2 (DE3) pLysS
T1 sequence (P07814 1001-1512): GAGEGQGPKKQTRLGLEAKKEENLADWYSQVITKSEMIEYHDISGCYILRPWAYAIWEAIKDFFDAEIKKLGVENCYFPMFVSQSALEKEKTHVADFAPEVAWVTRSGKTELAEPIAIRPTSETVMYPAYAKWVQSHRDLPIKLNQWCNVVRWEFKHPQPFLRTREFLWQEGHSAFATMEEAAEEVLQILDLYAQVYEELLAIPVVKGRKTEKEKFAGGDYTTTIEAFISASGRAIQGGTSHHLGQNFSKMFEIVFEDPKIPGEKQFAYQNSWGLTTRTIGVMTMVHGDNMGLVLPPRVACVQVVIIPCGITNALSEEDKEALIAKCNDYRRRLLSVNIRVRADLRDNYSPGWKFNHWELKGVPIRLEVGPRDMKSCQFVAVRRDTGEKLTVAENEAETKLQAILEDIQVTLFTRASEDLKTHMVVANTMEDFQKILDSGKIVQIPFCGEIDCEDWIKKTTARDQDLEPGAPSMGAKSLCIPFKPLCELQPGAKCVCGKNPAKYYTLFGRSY
Experimental: Compound binding usually helps to stabilize the protein due to protein-ligand interactions, resulting in an increase of the melting temperature (Tm) of the target protein during the thermal denaturation process. Each compound was pre-tested at 100 µM concentration against 3.45 µM HcProRS in the absence and presence of 1 mM Pro. The ∆Tm was calculated based on the difference between the Tm values of HcProRS with and without compound. […] In the presence of the natural substrate Pro, the Tm of HcProRS increased by 4 °C. […] In a second-tier characterization, the Tm-based EC50 values of these five hits were determined. […] This is in good agreement with the prior reported improved binding affinity and inhibitory activity of 2a in the presence of Pro when compared to the corresponding values obtained without Pro [16].
A total of 0.2 mg/mL HcProRS (corresponding to 3.45 µM) was incubated with various concentrations of different compounds in the absence or presence of 1 mM L-Pro with 1x thermal shift dye (Life Technologies, California, USA) in reaction buffer containing 50 mM HEPES pH 7.0, 150 mM KCl and 10% (v/v) ethylene glycol. Aliquots (20 µL) were transferred to a 96-well PCR plate in triplicate. After centrifugation to remove air bubbles, the plate was measured in Applied Biosystems® Protein Thermal Shift machine and subjected to a thermal gradient from 4 °C to 95 °C with the increasing rate of 0.05 °C/s. The fluorescence was detected by Protein Thermal Shift™ Software (Life Technologies, California, USA). Data analysis was performed by Boltzmann sigmoidal fitting to calculate melting temperature (Tm).
Figure S2. Dose-response melting curves of HcProRS in the presence of compound and 1 mM Pro. The melting temperature (Tm) at each compound concentration was determined by TSA with 3.45 µM of HcProRS. The reported EC50 values are based on the fitted curves. All reactions were performed in triplicate, the average values and standard errors are shown.
(1 picture or pasted object on this page, not shown here)

HcProRS [1] = target: HcProRS; parameters: method as in PMID 28501621; settings: in the presence of Pro; cited from earlier work
HcProRS [2] = tested on: HcProRS; parameters: method as in PMID 28501621; settings: ATP/PPi exchange assay in vitro; read-out: IC50, HcProRS inhibitory activity; cited from earlier work
HcProRS versus ThrRS = tested on: HcProRS versus ThrRS; parameters: method as in PMID 28501621; settings: reportedly; cited from earlier work
[3] = 1 mM Pro, read-out: EC50 (Tm-based) with 1 mM L-Pro

O=C(O)c1cnccn1 [POA, pyrazinoic acid, reference compound]
Tm with 1 mM L-Pro (recombinant HcProRS; 1 mM Pro): 59.06 °C | ∆Tm without L-Pro (recombinant HcProRS): −0.63 °C | Tm without L-Pro (recombinant HcProRS): 55.52 °C | ∆Tm with 1 mM L-Pro (recombinant HcProRS): −1.14 °C | effect on Tm (in words) (recombinant HcProRS): no effect on Tm

Cc1ccccc1CNC(=O)c1nccnc1NCc1ccccc1C [3c]
Tm with 1 mM L-Pro (recombinant HcProRS; 1 mM Pro): 62.72 °C | ∆Tm without L-Pro (recombinant HcProRS): −0.90 °C | Tm without L-Pro (recombinant HcProRS): 55.25 °C | ∆Tm with 1 mM L-Pro (recombinant HcProRS): +2.52 °C | EC50 (recombinant HcProRS; [3]): 7.34 ± 1.66 µM | fold better (lower) EC50 compared with 4d (recombinant HcProRS; TSA EC50 with 1 mM Pro): 12.4 fold

NC(=O)c1nccnc1NCc1cccc(Cl)c1 [4b]
Tm with 1 mM L-Pro (recombinant HcProRS; 1 mM Pro): 60.42 °C | ∆Tm without L-Pro (recombinant HcProRS): −0.77 °C | Tm without L-Pro (recombinant HcProRS): 55.38 °C | ∆Tm with 1 mM L-Pro (recombinant HcProRS): +0.22 °C

NC(=O)c1nccnc1NCc1ccccc1C(F)(F)F [4j]
Tm with 1 mM L-Pro (recombinant HcProRS; 1 mM Pro): 67.12 °C | Tm without L-Pro (recombinant HcProRS): 58.13 °C | ∆Tm with 1 mM L-Pro (recombinant HcProRS): +6.92 °C | EC50 (recombinant HcProRS; [3]): 15.3 ± 1.04 µM | fold better (lower) EC50 compared with 4d (recombinant HcProRS; TSA EC50 with 1 mM Pro): 6 fold and 7 fold

O=C(NCc1ccc(F)cc1)c1nccnc1NCc1ccc(F)cc1 [3a]
Tm with 1 mM L-Pro (recombinant HcProRS; 1 mM Pro): 58.21 °C | ∆Tm without L-Pro (recombinant HcProRS): −0.90 °C | Tm without L-Pro (recombinant HcProRS): 55.25 °C | ∆Tm with 1 mM L-Pro (recombinant HcProRS): −1.99 °C

Cc1ccccc1CNc1nccnc1C(N)=O [4d]
Tm with 1 mM L-Pro (recombinant HcProRS; 1 mM Pro): 63.33 °C | ∆Tm without L-Pro (recombinant HcProRS): −0.24 °C | Tm without L-Pro (recombinant HcProRS): 55.91 °C | ∆Tm with 1 mM L-Pro (recombinant HcProRS): +3.13 °C | EC50 (recombinant HcProRS; [3]): 91.1 ± 18.4 µM

NC(=O)c1cnccn1 [PZA, pyrazinamide]
Tm with 1 mM L-Pro (recombinant HcProRS; 1 mM Pro): 59.04 °C | ∆Tm without L-Pro (recombinant HcProRS): −0.09 °C | Tm without L-Pro (recombinant HcProRS): 56.06 °C | ∆Tm with 1 mM L-Pro (recombinant HcProRS): −1.16 °C | effect on Tm (in words) (recombinant HcProRS): no effect on Tm

COc1ccc(CNc2nccnc2C(N)=O)cc1 [4f]
Tm with 1 mM L-Pro (recombinant HcProRS; 1 mM Pro): 58.33 °C | ∆Tm without L-Pro (recombinant HcProRS): +0.19 °C | Tm without L-Pro (recombinant HcProRS): 56.34 °C | ∆Tm with 1 mM L-Pro (recombinant HcProRS): −1.87 °C

O=C(O)[C@@H]1CCCN1 [Pro, proline]
increase of Tm of HcProRS by natural substrate Pro (recombinant HcProRS; 1 mM Pro, no compound): 4 °C

NC(=O)c1nccnc1NCc1ccccc1F [4i]
Tm with 1 mM L-Pro (recombinant HcProRS; 1 mM Pro): 60.30 °C | ∆Tm without L-Pro (recombinant HcProRS): −0.69 °C | Tm without L-Pro (recombinant HcProRS): 55.46 °C | ∆Tm with 1 mM L-Pro (recombinant HcProRS): +0.10 °C

NC(=O)c1nccnc1NCc1ccc(Cl)c(Cl)c1 [4c]
Tm with 1 mM L-Pro (recombinant HcProRS; 1 mM Pro): 57.47 °C | ∆Tm without L-Pro (recombinant HcProRS): −1.58 °C | Tm without L-Pro (recombinant HcProRS): 54.57 °C | ∆Tm with 1 mM L-Pro (recombinant HcProRS): −2.73 °C

O=C(NC1Cc2ccccc2C1)c1nccnc1NC(=O)C1CCCCC1 [2a, 3-(cyclohexanecarboxamido)-N-(2,3-dihydro-1H-inden-2-yl)pyrazine-2-carboxamide, reference compound]
Tm with 1 mM L-Pro (recombinant HcProRS; 1 mM Pro): 73.35 °C | Tm without L-Pro (recombinant HcProRS): 63.15 °C | EC50 (recombinant HcProRS; [3]): 3.74 ± 0.67 µM | EC50 (recombinant HcProRS; no Pro, read-out: EC50 (Tm-based) in the absence of Pro): 30.3 ± 3.63 µM | Kd (HcProRS [1]): 0.00076 µM | IC50 (HcProRS [2]): 0.012 µM | selectivity for HcProRS versus ThrRS (HcProRS versus ThrRS): 2500 fold

NC(=O)c1nccnc1NCc1ccccc1 [4a]
Tm with 1 mM L-Pro (recombinant HcProRS; 1 mM Pro): 59.36 °C | ∆Tm without L-Pro (recombinant HcProRS): −0.35 °C | Tm without L-Pro (recombinant HcProRS): 55.80 °C | ∆Tm with 1 mM L-Pro (recombinant HcProRS): −0.84 °C

O=C(NCc1ccccc1Cl)c1nccnc1NCc1ccccc1Cl [3b]
Tm with 1 mM L-Pro (recombinant HcProRS; 1 mM Pro): 64.92 °C | ∆Tm without L-Pro (recombinant HcProRS): −0.10 °C | Tm without L-Pro (recombinant HcProRS): 56.05 °C | ∆Tm with 1 mM L-Pro (recombinant HcProRS): +4.72 °C | EC50 (recombinant HcProRS; [3]): 3.77 ± 0.85 µM | fold lower EC50 relative to 3c (recombinant HcProRS; TSA EC50 with 1 mM Pro, relative to 3c): 2 fold | fold lower EC50 compared with 4h (recombinant HcProRS; TSA EC50 with 1 mM Pro, relative to 4h): 3.6 fold

Nc1nccnc1C(=O)O [3-NH2-POA, 3-aminopyrazinoic acid, reference compound]
Tm with 1 mM L-Pro (recombinant HcProRS; 1 mM Pro): 59.50 °C | ∆Tm without L-Pro (recombinant HcProRS): −0.28 °C | Tm without L-Pro (recombinant HcProRS): 55.87 °C | ∆Tm with 1 mM L-Pro (recombinant HcProRS): −0.70 °C | effect on Tm (in words) (recombinant HcProRS): no effect on Tm

NC(=O)c1nccnc1NCc1ccccc1Cl [4h]
Tm with 1 mM L-Pro (recombinant HcProRS; 1 mM Pro): 62.47 °C | Tm without L-Pro (recombinant HcProRS): 57.04 °C | ∆Tm with 1 mM L-Pro (recombinant HcProRS): +2.27 °C | EC50 (recombinant HcProRS; [3]): 13.6 ± 3.27 µM | fold better (lower) EC50 compared with 4d (recombinant HcProRS; TSA EC50 with 1 mM Pro): 6 fold and 7 fold

Cc1ccc(CNc2nccnc2C(N)=O)cc1 [4g]
Tm with 1 mM L-Pro (recombinant HcProRS; 1 mM Pro): 59.09 °C | ∆Tm without L-Pro (recombinant HcProRS): −0.39 °C | Tm without L-Pro (recombinant HcProRS): 55.76 °C | ∆Tm with 1 mM L-Pro (recombinant HcProRS): −1.11 °C

COc1ccc(CNc2nccnc2C(N)=O)c(OC)c1 [4k]
Tm with 1 mM L-Pro (recombinant HcProRS; 1 mM Pro): 58.48 °C | ∆Tm without L-Pro (recombinant HcProRS): −0.07 °C | Tm without L-Pro (recombinant HcProRS): 56.08 °C | ∆Tm with 1 mM L-Pro (recombinant HcProRS): −1.72 °C

NC(=O)c1nccnc1NCc1ccc(Cl)cc1 [4e]
Tm with 1 mM L-Pro (recombinant HcProRS; 1 mM Pro): 58.70 °C | ∆Tm without L-Pro (recombinant HcProRS): −1.09 °C | Tm without L-Pro (recombinant HcProRS): 55.06 °C | ∆Tm with 1 mM L-Pro (recombinant HcProRS): −1.5 °C
